What follows are molecules tested against T1, γ-secretase (Homo sapiens, UniProt P49768) (assay: Screening for γ-secretase-modulating activity in SKNBE2 cells carrying the APP 695 wild type). Conditions: 0.3 μM; SKNBE2 cells carrying APP 695 wild type.
T1 construct: endogenous in cells; host or cells: SKNBE2 cells carrying APP 695 wild type
Type: cell-based
Description: Screening of the Compounds of the Invention for γ-Secretase-Modulating Activity
Screening was carried out using SKNBE2 cells carrying the APP 695—wild type, grown in DMEM/NUT-mix F12 (HAM) provided by Gibco (cat no. 31330-38) containing 5% Serum/Fe supplemented with 1% non-essential amino acids.
Cells were grown to near confluency.
The screening was performed using the assay as described in Citron et al (1997) Nature Medicine 3: 67.

Row | inhibition at 0.3 µM [%] | Structure (SMILES)
1 | 7 | CC(C)C[C@@H](C(=O)O)c1cc(NCc2ccc(C(F)(F)F)cc2)cc(-c2ccc(C(F)(F)F)cc2)c1 [Compound 44, (R) 4-Methyl-2-[4′-trifluoromethyl-5-(4-trifluoromethyl-benzylamino)-biphenyl-3-yl]-pentanoic acid]
2 | 11 | CC(C)CCN(Cc1cc(CC(=O)O)cc(-c2ccc(C(F)(F)F)cc2)c1)Cc1ccc(Cl)c(F)c1 [Compound 57, (5-{[(4-Chloro-3-fluoro-benzyl)-(3-methyl-butyl)-amino]-methyl}-4′-trifluoromethyl-biphenyl-3-yl)-acetic acid]
3 | 16 | CCN(c1cc(-c2ccc(C(F)(F)F)cc2)cc(C(CC(C)C)C(=O)O)c1)c1cccc(C(F)(F)F)c1 (stereo not drawn) [Example 13, 2-{5-[Ethyl-(3-trifluoromethyl-phenyl)-amino]-4′-trifluoromethyl-biphenyl-3-yl}-4-methyl-pentanoic acid]
4 | 31 | CC(C)CCN(Cc1ccc(C#N)cc1)c1cc(-c2ccc(C(F)(F)F)cc2)cc([C@@H](CC(C)C)C(=O)O)c1 [Compound 48, (R) 2-{5-[(4-Cyano-benzyl)-(3-methyl-butyl)-amino]-4′-trifluoromethyl-biphenyl-3-yl}-4-methyl-pentanoic acid]
5 | 22 | CC(C)CC(C(=O)O)c1cc(-c2ccc(C(F)(F)F)cc2)cc(N(C)c2ccc(C(F)(F)F)cc2)c1 (stereo not drawn) [Example 19, 4-Methyl-2-{5-[methyl-(4-trifluoromethyl-phenyl)-amino]-4′-trifluoromethyl-biphenyl-3-yl}-pentanoic acid]
6 | 13 | CC(C)CC(C(=O)O)c1cc(-c2ccc(C(F)(F)F)cc2)cc(N(C)c2cc[n+](C)cc2)c1 (stereo not drawn) [Example 16, 4-{[5-(1-Carboxy-3-methyl-butyl)-4′-trifluoromethyl-biphenyl-3-yl]-methyl-amino}-1-methyl-pyridinium]
7 | 0 | CC(C)CC(C(=O)O)c1cc(-c2ccc(C(F)(F)F)cc2)cc(N2CCc3ccccc3C2)c1 (stereo not drawn) [Compound 53, 4-Methyl-2-[-5-(3,4-dihydroisoquinolin-2(1H)-yl)-4′-(trifluoromethyl)biphenyl-3-yl]-pentanoic acid]
8 | 14 | CCN(c1ccc(Cl)cc1)c1cc(-c2ccc(C(F)(F)F)cc2)cc(C(CC(C)C)C(=O)O)c1 (stereo not drawn) [Example 14, 2-{5-[(4-Chloro-phenyl)-ethyl-amino]-4′-trifluoromethyl-biphenyl-3-yl}-4-methyl-pentanoic acid]
9 | 0 | CC(C)C[C@@H](C(=O)O)c1cc(NCc2ccc(OC(F)(F)F)cc2)cc(-c2ccc(C(F)(F)F)cc2)c1 [Compound 41, 4-Methyl-2-[5-(4-trifluoromethoxy-benzylamino)-4′-trifluoromethyl-biphenyl-3-yl]-pentanoic acid]
10 | 23 | CC(C)CC(C(=O)O)c1cc(-c2ccc(C(F)(F)F)cc2)cc(N(C)c2ccc(F)cc2C(F)(F)F)c1 (stereo not drawn) [Example 11, 2-{5-[(4-Fluoro-2-trifluoromethyl-phenyl)-methyl-amino]-4′-trifluoromethyl-biphenyl-3-yl}-4-methyl-pentanoic acid]
11 | 25 | CC(C)CCC(Nc1cc(CC(=O)O)cc(-c2ccc(C(F)(F)F)cc2)c1)c1ccc(C(F)(F)F)cc1 (stereo not drawn) [Compound 32]

Same assay, conditions: SKNBE2 cells carrying APP 695 wild type

Row | EC50 [nM] | Structure (SMILES)
12 | 250 | CC(C)CCN(Cc1cc(-c2ccc(C(F)(F)F)cc2)cc([C@@H](CC(C)C)C(=O)O)c1)c1ccc(C(F)(F)F)cc1 [Compound 63, 4-Methyl-2-(5-{[(3-methyl-butyl)-(4-trifluoromethyl-phenyl)-amino]-methyl}-4′-trifluoromethyl-biphenyl-3-yl)-pentanoic acid]
13 | 450 | CC(C)CC(C(=O)O)c1cc(-c2ccc(C(F)(F)F)cc2)cc(N(C)c2cc(F)cc(F)c2)c1 (stereo not drawn) [Example 3, 2-{5-[(3,5-Difluoro-phenyl)-methyl-amino]-4′-trifluoromethyl-biphenyl-3-yl}-4-methyl-pentanoic acid]
14 | 1130 | CC(C)CC(C(=O)O)c1cc(-c2ccc(C(F)(F)F)cc2)cc(N(C)c2ccc(Cl)cc2)c1 (single isomer, unassigned) [Example 21, (R*)2-{5-[(4-Chloro-phenyl)-methyl-amino]-4′-trifluoromethyl-biphenyl-3-yl}-4-methyl-pentanoic acid]
15 | 390 | CC(C)CCN(Cc1cc(-c2ccc(C(F)(F)F)cc2)cc(C(CC(C)C)C(=O)O)c1)Cc1cccc(C(F)(F)F)c1 (stereo not drawn) [Compound 61, 4-Methyl-2-(5-{[(3-methyl-butyl)-(3-trifluoromethyl-benzyl)-amino]-methyl}-4′-trifluoromethyl-biphenyl-3-yl)-pentanoic acid]
16 | 220 | CC(C)CC(C(=O)O)c1cc(-c2ccc(C(F)(F)F)cc2)cc(N(C)c2cccc(C(F)(F)F)c2)c1 (stereo not drawn) [Example 2, 4-Methyl-2-{5-[methyl-(3-trifluoromethyl-phenyl)-amino]-4′-trifluoromethyl-biphenyl-3-yl}-pentanoic acid]
17 | 170 | CC(C)CCN(c1ccc(C(F)(F)F)cc1)c1cc(-c2ccc(C(F)(F)F)cc2)cc(C(CC(C)C)C(=O)O)c1 (stereo not drawn) [Example 20, 4-Methyl-2-{5-[(3-methyl-butyl)-(4-trifluoromethyl-phenyl)-amino]-4′-trifluoromethyl-biphenyl-3-yl}-pentanoic acid]
18 | 580 | CC(C)CCN(Cc1ccc(C(F)(F)F)cc1)c1cc(-c2ccc(C(F)(F)F)cc2)cc(C(CC(C)C)C(=O)O)c1 (stereo not drawn) [Compound 45, 4-Methyl-2-{5-[(3-methyl-butyl)-(4-trifluoromethyl-benzyl)-amino]-4′-trifluoromethyl-biphenyl-3-yl}-pentanoic acid]
19 | 270 | CC(C)CCC(Nc1cc(-c2ccc(C(F)(F)F)cc2)cc(C(CC(C)C)C(=O)O)c1)c1ccc(C(F)(F)F)cc1 (stereo not drawn) [Compound 31, 4-Methyl-2-{5-[4-methyl-1-(4-trifluoromethyl-phenyl)-pentylamino]-4′-trifluoromethyl-biphenyl-3-yl}-pentanoic acid]
20 | 590 | CC(C)CCN(Cc1ccc(C(F)(F)F)cc1)Cc1cc(CC(=O)O)cc(-c2ccc(C(F)(F)F)cc2)c1 [Compound 58, (5-{[(3-Methyl-butyl)-(4-trifluoromethyl-benzyl)-amino]-methyl}-4′-trifluoromethyl-biphenyl-3-yl)-acetic acid]
21 | 300 | CC(C)CCN(Cc1cc(-c2ccc(C(F)(F)F)cc2)cc(C(CC(C)C)C(=O)O)c1)Cc1ccc(F)cc1C(F)(F)F (stereo not drawn) [Compound 60, 2-(5-{[(4-Fluoro-2-trifluoromethyl-benzyl)-(3-methyl-butyl)-amino]-methyl}-4′-trifluoromethyl-biphenyl-3-yl)-4-methyl-pentanoic acid]
22 | 220 | CC(C)CCN(Cc1ccc(C(F)(F)F)cc1)Cc1cc(-c2ccc(C(F)(F)F)cc2)cc(C(CC(C)C)C(=O)O)c1 (stereo not drawn) [Compound 56, 4-Methyl-2-(5-{[(3-methyl-butyl)-(4-trifluoromethyl-benzyl)-amino]-methyl}-4′-trifluoromethyl-biphenyl-3-yl)-pentanoic acid]
23 | 480 | CC(C)CC(C(=O)O)c1cc(-c2ccc(Cl)c(C(F)(F)F)c2)cc(N(C)c2cc(C(F)(F)F)cc(C(F)(F)F)c2)c1 (stereo not drawn) [Compound 27, 2-[4′-Chloro-5-(N-[3,5-bis-(trifluoromethyl)phenyl]-N-methylamino)-3′-trifluoromethyl-biphenyl-3-yl]-4-methyl-pentanoic acid]
24 | 240 | CC(C)CCN(Cc1cc(F)cc(F)c1)Cc1cc(-c2ccc(C(F)(F)F)cc2)cc(C(CC(C)C)C(=O)O)c1 (stereo not drawn) [Compound 59, 2-(5-{[(3,5-Difluoro-benzyl)-(3-methyl-butyl)-amino]-methyl}-4′-trifluoromethyl-biphenyl-3-yl)-4-methyl-pentanoic acid]
25 | 640 | CC(C)CCN(Cc1ccc(OC(F)(F)F)cc1)c1cc(-c2ccc(C(F)(F)F)cc2)cc([C@@H](CC(C)C)C(=O)O)c1 [Compound 42, (R) 4-Methyl-2-{5-[(3-methyl-butyl)-(4-trifluoromethoxy-benzyl)-amino]-4′-trifluoromethyl-biphenyl-3-yl}-pentanoic acid]
26 | 300 | CC(C)CCC(Nc1cc(-c2ccc(C(F)(F)F)cc2)cc(C(CC(C)C)C(=O)O)c1)c1cc(F)cc(F)c1 (stereo not drawn) [Compound 29, 2-{5-[1-(3,5-Difluoro-phenyl)-4-methyl-pentylamino]-4′-trifluoromethyl-biphenyl-3-yl}-4-methyl-pentanoic acid]

Same assay, conditions: concentration not given; SKNBE2 cells carrying APP 695 wild type

Row | % printed in the EC50 column, no concentration given [%] | Structure (SMILES)
27 | −0 | CC(C)CC(C(=O)O)c1cc(-c2ccc(C(F)(F)F)cc2)cc(N(C)c2ccc(C#N)cc2)c1 (stereo not drawn) [Example 8, 2-{5-[(4-Cyano-phenyl)-methyl-amino]-4′-trifluoromethyl-biphenyl-3-yl}-4-methyl-pentanoic acid]

Reference: patent US8247610B2, “Amine linked modulators of γ-secretase” (Janssen Pharmaceutica N.V., priority 2007, dated 2012)
